In patent publication US10149478B2, “Biologically active formulation” (Endura S.P.A., priority 2005, dated 2018):

Tested on: Bemisia tabaci (whitely) biotype B
Test: Leaf dip bioassay, mortality assay for insecticide compounds (Example 20)
Format: in vivo
Conditions: for LC50% a.i. (*): quantity of pure insecticide achieving 50% mortality; for resistance factor: relative to non-resistant insects
Procedure: The “leaf dip bioassay” used for testing the activity of insecticides against Bemisia tabaci (whitely) biotype B, was similar to that described by Cahill, M et al, Bull. Entomol. Res. 85, 181-187, 1995.
Cotton plants (Gossypium hirsutum L.) were grown without any exposure to the insecticides. The leaves were cut up into disc shapes and immersed in an aqueous solution of insecticide containing 0.01% of Agral then left to dry at 25° C.
Control leaves were immersed in Agral and distilled water only.
About 20 adult insects were placed onto the small discs of treated cotton leaf.
The insects were allowed to feed and maximum mortality was evaluated at 24 and 48 hours.
LC50% a.i. and LC99% a.i indicate the quantity of active ingredient (i.e pure insecticide) able to achieve mortality for 50% and 99% of the insects tested.

[1] = adults on treated cotton leaf discs, maximum mortality evaluated at 24 and 48 hours

SMILES: C/C(=N\C#N)N(C)Cc1ccc(Cl)nc1 [Acetamiprid]
- LC50% a.i. (*) [1]: 0.00038 ppm
- LC99% a.i. (*) (quantity of pure insecticide achieving 99% mortality, adults on treated cotton leaf discs, maximum mortality evaluated at 24 and 48 hours): 0.098 ppm
- resistance factor: 21 times

SMILES: O=[N+]([O-])NC1=NCCN1Cc1ccc(Cl)nc1 [Imidacloprid]
- LC50% a.i. (*) [1]: 4.7 ppm
- resistance factor: 2336 times
